Drawing on US8501781B2 (priority 2009, dated 2013), this text covers logP and chromatographic logP for 60 molecules.

Marks after values point to notes of the source that are not given here.

The nature of this series: logP by HPLC (EEC Directive 79/831 Annex V.A8). In kind it is physicochemical.
[1] abbreviates: [b] LC-MS, acidic range, pH 2.7, 0.1% aqueous formic acid and acetonitrile.
The mark [2] stands for this setting: [c] LC-MS, neutral range, pH 7.8, 0.001 molar aqueous ammonium bicarbonate and acetonitrile.

Consider `Cn1ncc(CC(=O)N2CCC(c3nc(C(=O)OC4CCCCC4)cs3)CC2)c1Cl` [Example 6], for which the logP under setting [1] is 2.93^[b].
For the molecule `COc1ccc(C)cc1NC(=O)N1CCC(c2nc(C(=O)OCc3ccccc3Br)cs2)CC1` [Example 104], the logP is given as 4.08 under setting [1] and 4.12 under setting [2].
As for `Cc1ccc(C)c(NC(=O)N2CCC(c3nc(C(=O)O[C@@H]4CCCC[C@H]4c4ccccc4)cs3)CC2)c1` [Example 122], under setting [1], the logP was 4.43^[b].
On the same count and under the same terms, the figure for `Cc1ccc(F)c(NC(=O)N2CCC(c3nc(C(=O)OC4CCCCC4)cs3)CC2)c1` [Example 64] is 3.81^[b]; for `COc1ccc(OC)c(NC(=O)N2CCC(c3nc(C(=O)OC4CCCCC4)cs3)CC2)c1` [Example 93] it is 3.76^[b]; for `Cc1ccc(C)c(NC(=O)N2CCC(c3nc(C(=O)Oc4c(Br)cccc4Br)cs3)CC2)c1` [Example 144] it is 3.93^[b].
As for `O=C(OCc1ccccc1Br)c1csc(C2CCN(C(=O)Cc3cc(Cl)ccc3Cl)CC2)n1` [Example 87], the logP under setting [1] stood at 4.41 and the logP under setting [2] worked out at 4.44.
For `Cc1nc(CC(=O)N2CCC(c3nc(C(=O)Oc4cccc5ccccc45)cs3)CC2)c(C)s1` [Example 26], the logP under setting [1] is 3.10^[b].
Still for that read-out and setting: the result for `O=C(OC1CCCCC1)c1csc(C2CCN(C(=O)Cc3cc(C(F)(F)F)ccc3Cl)CC2)n1` [Example 12] reads 4.64^[b].
Regarding `O=C(OCc1ccccc1Br)c1csc(C2CCN(C(=O)Nc3cc(C(F)(F)F)ccc3Cl)CC2)n1` [Example 106], the logP turned out to be 4.7 under setting [1] and 4.75 under setting [2].
In the same order, the values of `Cc1cc(C(F)(F)F)nn1CC(=O)N1CCN(c2nc(C(=O)Oc3cccc4cccnc34)cs2)CC1` [Example 36] are 2.85 and 2.83.
In the case of `Cc1ccc(C)c(NC(=O)N2CCC(c3nc(C(=O)OCCc4c(Cl)cccc4Cl)cs3)CC2)c1` [Example 157], the logP under setting [1] is 4.29^[b].
Same read-out and setting: the result for `COc1ccc(C)cc1NC(=O)N1CCC(c2nc(C(=O)OC3CCCCC3)cs2)CC1` [Example 71] reads 4.18^[b].
As for `COCCOCC(=O)N1CCC(c2nc(C(=O)OC3CCCCC3)cs2)CC1` [Example 174], under “[a] acidic range, pH 2.3, 0.1% aqueous phosphoric acid and acetonitrile”, the logP was 2.37^[a].
Turning to `O=C(OC1CCCCC1)c1csc(C2CCN(C(=O)CC3CCCC(C(F)(F)F)C3)CC2)n1` (stereo not drawn) [Example 56], under setting [1], the logP is 4.58^[b].
`Cc1ccc(C)c(NC(=O)N2CCC(c3nc(C(=O)Oc4ccccc4F)cs3)CC2)c1` [Example 147]: the logP under setting [1] is 3.27^[b].
With `COc1ccc(COC(=O)c2csc(N3CCN(C(=O)Cn4nc(C(F)(F)F)cc4C)CC3)n2)cc1` [Example 35], the logP under setting [2] is 3.19^[c].
In the case of `Cc1ccc(Br)cc1CC(=O)N1CCC(c2nc(C(=O)OC3CCCCC3)cs2)CC1` [Example 17], the logP under setting [1] was 4.47^[b].
On the same count and under the same terms, the result for `Cc1ccc(C)c(NC(=O)N2CCC(c3nc(C(=O)OCc4ccccc4Cl)cs3)CC2)c1` [Example 135] reads 3.73^[b]; that for `COc1cccc(F)c1C(C)OC(=O)c1csc(C2CCN(C(=O)Nc3cc(C)ccc3C)CC2)n1` (stereo not drawn) [Example 138], 3.79^[b]; that for `Cc1ccc(C)c(NC(=O)N2CCC(c3nc(C(=O)OC(C)c4ccccc4F)cs3)CC2)c1` (stereo not drawn) [Example 153], 3.71^[b].
Turning to `Cc1ccc(C)c(NC(=O)N2CCC(c3nc(C(=O)Oc4c(C)cccc4Cl)cs3)CC2)c1` [Example 143], the logP under setting [1] was 3.76^[b].
With `Cc1ccc(C)c(NC(=O)N2CCC(c3nc(C(=O)O[C@H]4CCCC[C@@H]4c4ccccc4)cs3)CC2)c1` [Example 123], the logP under setting [1] was 4.42^[b].
As for `Cc1ccc([N+](=O)[O-])cc1NC(=O)N1CCC(c2nc(C(=O)OCc3ccccc3Br)cs2)CC1` [Example 110], the logP by setting is: under setting [1], 3.69; under setting [2], 3.70.
Take `O=C(OC1CCCc2ccccc21)c1csc(C2CCN(C(=O)Nc3cc(Cl)ccc3Cl)CC2)n1` (stereo not drawn) [Example 95]: the logP under setting [1] is 4.92^[b].
The same measure, in the same setting: the figure for `Cc1ccc(Cl)c(NC(=O)N2CCC(c3nc(C(=O)OC4CCCCC4)cs3)CC2)c1` [Example 62] is 4.30^[b]; for `O=C(OC1CCCCC1)c1csc(C2CCN(C(=O)Nc3cc(C(F)(F)F)ccc3Cl)CC2)n1` [Example 61] it is 4.76^[b].
Same read-out and setting: the figure for `O=C(OC1CCCCC1)c1cnc(C2CCN(C(=O)Cn3nc(C(F)F)cc3C(F)F)CC2)s1` [Example 178] is 3.97^[b]; for `Cc1ccc(C)c(NC(=O)N2CCC(c3nc(C(=O)OCc4ccccc4F)cs3)CC2)c1` [Example 140] it is 3.39^[b]; for `Cc1ccc(C)c(NC(=O)N2CCC(c3nc(C(=O)OCc4c(F)cccc4Cl)cs3)CC2)c1` [Example 120] it is 3.66^[b].
On to `Cc1ccc(C)c(NC(=O)N2CCC(c3nc(C(=O)OCc4c(F)cccc4Br)cs3)CC2)c1` [Example 155], for which the logP under setting [1] is 3.79^[b].
In the case of `Cc1ccc(F)cc1NC(=O)N1CCC(c2nc(C(=O)OCc3ccccc3Br)cs2)CC1` [Example 90], the logP amounted to 3.77 under setting [1] and 3.75 under setting [2].
As to `O=C(Oc1cccc2ccccc12)c1csc(C2CCN(C(=O)Cc3ccsc3)CC2)n1` [Example 7], under setting [1], the logP was 3.46^[b].
Regarding `O=C(OC1CCCc2ccccc21)c1csc(C2CCN(C(=S)Nc3cc(F)ccc3F)CC2)n1` (stereo not drawn) [Example 124], the logP is, setting by setting: under setting [1], 4.06; under setting [2], 3.94.
The matching figures for `Cc1cc(CC(=O)N2CCC(c3nc(C(=O)OC4CCCCC4)cs3)CC2)nn1C` [Example 89]: 2.66 and 2.68.
The matching figures for `Cc1cc(C(F)(F)F)nn1CC(=O)N1CCN(c2nc(C(=O)Sc3ccc4ccccc4c3)cs2)CC1` [Example 45]: 4.33^[c]; 4.33^[b] and 4.33^[c]; 4.33^[b].
In the case of `O=C(OC1CCCCC1)c1csc(C2CCN(C(=O)Cc3cc(Cl)ccc3Cl)CC2)n1` [Example 14], the logP under setting [1] was 4.49^[b].
For the molecule `Cc1cc(C(F)(F)F)nn1CC(=O)N1CCN(c2nc(C(=O)SC3CCCCC3)cs2)CC1` [Example 34], the logP under setting [2] is 4.43^[c].
With `O=C(OC1CCCCC1)c1csc(C2CCN(C(=O)CC3CCCC3)CC2)n1` [Example 83], the logP amounted to 4.15 under setting [1] and 4.12 under setting [2].
Take `O=C(OCc1c(F)cccc1F)c1csc(C2(F)CCN(C(=O)Cn3nc(C(F)F)cc3C(F)F)CC2)n1` [Example 168]: the logP is, setting by setting: under setting [1], 3.53; under setting [2], 3.56.
The matching figures for `Cc1ccc(Cl)c(NC(=O)N2CCC(c3nc(C(=O)OCc4ccccc4Br)cs3)CC2)c1` [Example 107]: 4.28 and 4.33.
In the same order, the values of `O=C(OCc1ccccc1Br)c1csc(C2CCN(C(=O)Nc3cc(Cl)ccc3Cl)CC2)n1` [Example 108] are 4.56 and 4.61.
Take `COc1ccc(Cl)cc1NC(=O)N1CCC(c2nc(C(=O)OC3CCCc4ccccc43)cs2)CC1` (stereo not drawn) [Example 97]: the logP under setting [1] is 4.64^[b].
As to `CC(C)(C)OC(=O)N1CCC(c2nc(C(=O)OC3CCCCC3)cs2)CC1` [XXXIII-1, tert-Butyl 4-{4-[(cyclohexyloxy)carbonyl]-1,3-thiazol-2-yl}piperidine-1-carboxylate], the chromatographic logP (pH 2.7, given in the preparation examples, read-out: log P (pH 2.7)) was 4.62.
`O=C(OCc1ccccc1Br)c1csc(C2CCN(C(=O)Nc3cc(C(F)(F)F)ccc3F)CC2)n1` [Example 111]: the logP was 4.29^[c]; 4.29^[b] under setting [1] and 4.29^[c]; 4.29^[b] under setting [2].
Turning to `Cc1ccc(C)c(NC(=O)N2CCC(F)(c3nc(C(=O)OCc4c(F)cccc4F)cs3)CC2)c1` [Example 171], the logP is 3.69 under setting [1] and 3.71 under setting [2].
`Cc1cc(C(F)(F)F)nn1CC(=O)N1CCN(c2nc(C(=O)Oc3ccc(Cl)cc3Cl)cs2)CC1` [Example 37] displayed a logP under setting [1] of 3.96 and a logP under setting [2] of 3.87.
On to `Cc1oc(-c2ccccc2)nc1CC(=O)N1CCC(c2nc(C(=O)Oc3cccc4ccccc34)cs2)CC1` [Example 24], for which the logP under setting [1] is 4.04^[b].
In the case of `COc1ccc(C)cc1NC(=O)N1CCC(F)(c2nc(C(=O)OCc3c(F)cccc3F)cs2)CC1` [Example 173], the logP is, setting by setting: under setting [1], 3.80; under setting [2], 3.92.
In the same order, the values of `Cc1ccc(F)cc1NC(=S)N1CCC(c2nc(C(=O)OCc3ccccc3Br)cs2)CC1` [Example 117] are 3.98^[c]; 3.98^[b] and 3.98^[c]; 3.98^[b].
As to `COc1cccc(Br)c1OC(=O)c1csc(C2CCN(C(=O)Nc3cc(C)ccc3C)CC2)n1` [Example 142], under setting [1], the logP is 3.56^[b].
Consider `Cc1ccc(C)c(NC(=O)N2CCC(c3nc(C(=O)Oc4ccccc4Br)cs3)CC2)c1` [Example 146], for which, under setting [1], the logP is 3.58^[b].
In the case of `Cc1cc(C(F)(F)F)nn1CC(=O)N1CCN(c2nc(C(=O)OCc3ccccc3Cl)cs2)CC1` [Example 48], the logP runs as follows: under setting [1], 3.64^[c]; 3.64^[b]; under setting [2], 3.64^[c]; 3.64^[b].
`Cc1ccc(C)c(NC(=O)N2CCC(F)(c3nc(C(=O)OC4CCCCC4)cs3)CC2)c1` [Example 172]: the logP was 4.15^[c]; 4.15^[b] under setting [1] and 4.15^[c]; 4.15^[b] under setting [2].
On to `O=C(Oc1c(F)cccc1Cl)c1cnc(C2CCN(C(=O)Cn3nc(C(F)F)cc3C(F)F)CC2)s1` [Example 176], for which the lipophilicity (logP) under setting [1] is 3.67^[b].
The same measure, in the same setting: the result for `Cc1ccc(C)c(NC(=O)N2CCC(c3nc(C(=O)OC4CCCc5ccccc54)cs3)CC2)c1` (stereo not drawn) [Example 78] reads 4.09^[b].
On the same count and under the same terms, the result for `Cc1ccc(C)c(NC(=O)N2CCC(c3nc(C(=O)Oc4c(F)cccc4Cl)cs3)CC2)c1` [Example 149] reads 3.62^[b]; that for `Cc1noc(C)c1NC(=O)N1CCC(c2nc(C(=O)OC3CCCc4ccccc43)cs2)CC1` (stereo not drawn) [Example 98], 2.97^[b]; that for `Cc1ccc(Cl)cc1NC(=O)N1CCC(c2nc(C(=O)OC3CCCCC3)cs2)CC1` [Example 72], 4.10^[b].
Take `O=C(OCc1ccccc1Br)c1csc(C2CCN(C(=O)Cc3cc(Br)ccc3Br)CC2)n1` [Example 101]: the logP by setting is: under setting [1], 4.68; under setting [2], 4.64.
